The term EC50 denotes the concentration that produces a half-maximal response. Lower therefore signals higher potency in that assay.

For test [1], the target named is T1, rM4 receptors (Rattus norvegicus, UniProt P08485).
T1 construct: expressed in transfected cells; host or cells: CHO cells
T1 sequence (P08485 1-478): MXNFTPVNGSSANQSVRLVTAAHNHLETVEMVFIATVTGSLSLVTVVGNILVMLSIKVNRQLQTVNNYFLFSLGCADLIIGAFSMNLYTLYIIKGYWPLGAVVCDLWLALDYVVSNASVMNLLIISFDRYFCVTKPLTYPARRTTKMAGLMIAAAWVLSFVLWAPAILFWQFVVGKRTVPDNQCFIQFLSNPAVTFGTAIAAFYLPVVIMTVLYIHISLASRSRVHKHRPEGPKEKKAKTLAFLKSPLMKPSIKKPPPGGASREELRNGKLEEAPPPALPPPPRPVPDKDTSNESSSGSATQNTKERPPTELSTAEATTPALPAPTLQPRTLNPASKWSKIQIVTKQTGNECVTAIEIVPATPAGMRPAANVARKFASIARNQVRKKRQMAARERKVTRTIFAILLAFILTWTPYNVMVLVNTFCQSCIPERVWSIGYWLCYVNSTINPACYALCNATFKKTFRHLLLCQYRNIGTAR
Put plainly: Rat M4 PAM PERK assay (CHO cells, TR-FRET, with EC20 acetylcholine). Format: cell-based. Summed up: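 CHO cells expressing human or rat M4, serum-starved 4 h, then given compound (10-point, 10 μM top, ½-log) with EC20 acetylcholine (10 nM final) for 5 min at 37 °C. Lysates assayed for phospho-ERK by TR-FRET after 2 h detection at RT.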

In test [2] the target is T2, human M4 receptor (Homo sapiens, UniProt P08173).
T2 construct: expressed in transfected cells; host or cells: CHO-K1 cells (membranes)
T2 sequence (P08173 1-479): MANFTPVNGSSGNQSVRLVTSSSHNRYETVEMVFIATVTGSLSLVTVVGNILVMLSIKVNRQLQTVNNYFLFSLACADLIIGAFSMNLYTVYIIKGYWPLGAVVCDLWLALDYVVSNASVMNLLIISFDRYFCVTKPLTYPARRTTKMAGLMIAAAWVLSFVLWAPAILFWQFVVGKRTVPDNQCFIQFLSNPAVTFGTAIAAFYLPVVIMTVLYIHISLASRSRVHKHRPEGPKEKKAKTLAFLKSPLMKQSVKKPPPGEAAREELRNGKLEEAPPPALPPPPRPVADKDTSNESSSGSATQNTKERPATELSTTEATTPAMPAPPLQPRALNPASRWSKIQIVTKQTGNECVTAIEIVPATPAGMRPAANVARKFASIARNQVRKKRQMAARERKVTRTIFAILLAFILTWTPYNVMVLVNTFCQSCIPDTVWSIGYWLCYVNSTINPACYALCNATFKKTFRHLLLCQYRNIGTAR
Put plainly: M4 GTPγS PAM assay (CHO-K1 membranes, 35S-GTP binding, with EC20 acetylcholine). Format: biochemical. Conditions: with EC20 acetylcholine (40 nM). An outline of the steps:
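Membranes from CHO-K1 cells stably expressing human M4 ([…]) in 20 mM HEPES, 10 mM MgCl2, 100 mM NaCl, with 0.1 μM GDP final, were preincubated with compound 10-15 min at RT. Acetylcholine at EC20 (40 nM final) was added for 10-15 min, then 0.4 nM 35S-GTP solution for 1 h at RT. Filter-bound radioactivity was counted.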

`Cc1cc(=O)n(C)c2c1CN(C(=O)CC1CN(c3cc(F)cc(C4CC4)c3)C1)C2` [Compound I-4]: the figures for the EC50 in test [1] and in test [2] were 50 to 200 nM and less than 50 nM, respectively.

As for `Cc1c2c(n(C)c(=O)c1F)CN(C(=O)CC1CN(c3ccc(C4CC4)c(F)c3)C1)C2` [Compound I-88], the EC50 in test [1] and in test [2] was less than 50 nM in each case.

`Cc1cc(=O)n(C)c2c1CN(C(=O)CC1CN(c3cccc(F)c3F)C1)C2` [Compound I-14]: the EC50 in test [1] was in the range of 200 to 1000 nM; in test [2] it was 50 to 200 nM.

Take `Cc1c2c(n(C)c(=O)c1C)CN(C(=O)CC1CN(c3ccnc(C(F)(F)F)c3)C1)C2` [Compound I-42, 1,3,4-Trimethyl-6-(2-(1-(2-(trifluoromethyl)pyridin-4-yl)azetidin-3-yl)acetyl)-1,5,6,7-tetrahydro-2H-pyrrolo[3,4-b]pyridin-2-one]: the EC50 in test [1] was 50 to 200 nM; in test [2] it was less than 50 nM.

These data come from US20260209220A1, “SUBSTITUTED TETRAHYDROPYRROLO-PYRIDINONE COMPOUNDS AND THEIR USE IN TREATING MEDICAL CONDITIONS” (Karuna Therapeutics, Inc., priority 2022, published 2026).
